Results from the NIST ThermoML archive (doi:10.1021/je060271a).
“And” between values parts separate entries of the source, which are not always exact repeats. Equal values may be shown once.

Conditions: Liquid, Vibrating tube method

CCCCCC(=O)OCC(COC(=O)CCCCC)(COC(=O)CCCCC)COC(=O)CCCCC [pentaerythritol tetrahexanoate]
Conditions | mass density
323.17 K, 28058 kPa | 990.9 kg/m3
323.17 K, 28086 kPa | 991 kg/m3
323.17 K, 28114 kPa | 991 kg/m3
323.17 K, 28143 kPa | 991 kg/m3
323.17 K, 28171 kPa | 991 kg/m3
323.17 K, 28198 kPa | 991 kg/m3
323.17 K, 28227 kPa | 991 kg/m3
323.17 K, 28250 kPa | 991 kg/m3
323.17 K, 28280 kPa | 991.1 kg/m3
323.17 K, 32281 kPa | 993.5 kg/m3
323.17 K, 32302 kPa | 993.5 kg/m3
323.17 K, 32323 kPa | 993.5 kg/m3
323.17 K, 32340 kPa | 993.5 kg/m3
323.17 K, 32354 kPa | 993.5 kg/m3
323.18 K, 15635 kPa | 983.3 kg/m3
323.18 K, 15665 kPa | 983.3 kg/m3
323.18 K, 15689 kPa | 983.4 kg/m3
323.18 K, 15719 kPa | 983.4 kg/m3
323.18 K, 15747 kPa | 983.4 kg/m3
323.18 K, 15770 kPa | 983.3 kg/m3
323.18 K, 15797 kPa | 983.4 kg/m3
323.18 K, 15822 kPa | 983.4 kg/m3
323.18 K, 16186 kPa | 983.7 kg/m3
323.18 K, 16212 kPa | 983.6 kg/m3
323.18 K, 16234 kPa | 983.7 kg/m3
323.18 K, 16261 kPa | 983.7 kg/m3
323.18 K, 16283 kPa | 983.8 kg/m3
323.18 K, 25706 kPa | 989.7 kg/m3
343.14 K, 219.9 kPa | 957.2 kg/m3
343.14 K, 220 kPa | 957.3 kg/m3
343.14 K, 220.3 kPa | 957.1 kg/m3 and 957.2 kg/m3
343.14 K, 223.6 kPa | 957.3 kg/m3
343.14 K, 348.7 kPa | 957.3 kg/m3
343.14 K, 348.9 kPa | 957.2 kg/m3
343.14 K, 349 kPa | 957.3 kg/m3
343.14 K, 349.6 kPa | 957.4 kg/m3
343.14 K, 350.2 kPa | 957.3 kg/m3
343.14 K, 350.4 kPa | 957.2 kg/m3
343.14 K, 350.6 kPa | 957.3 kg/m3
343.14 K, 351.1 kPa | 957.3 kg/m3
343.14 K, 351.3 kPa | 957.3 kg/m3
343.14 K, 387.3 kPa | 957.4 kg/m3
343.14 K, 387.4 kPa | 957.2 kg/m3
343.14 K, 388.3 kPa | 957.4 kg/m3 and 957.5 kg/m3
343.14 K, 388.5 kPa | 957.4 kg/m3
343.14 K, 388.8 kPa | 957.5 kg/m3
343.14 K, 389.7 kPa | 957.3 kg/m3
343.14 K, 390.2 kPa | 957.5 kg/m3
343.14 K, 754.9 kPa | 957.7 kg/m3
343.14 K, 762.4 kPa | 957.6 kg/m3
343.14 K, 769.9 kPa | 957.7 kg/m3
343.14 K, 778.4 kPa | 957.6 kg/m3
343.14 K, 925.3 kPa | 957.8 kg/m3
343.14 K, 935.1 kPa | 957.8 kg/m3
343.14 K, 947.2 kPa | 957.8 kg/m3
343.14 K, 956.9 kPa | 957.8 kg/m3
343.14 K, 1145.7 kPa | 958 kg/m3
343.14 K, 1156.5 kPa | 958 kg/m3
343.14 K, 1168 kPa | 958 kg/m3
343.14 K, 1181.7 kPa | 958 kg/m3
343.14 K, 1193 kPa | 958 kg/m3
343.14 K, 1206.5 kPa | 958 kg/m3
343.14 K, 1218.3 kPa | 958 kg/m3
343.14 K, 1230.1 kPa | 958.1 kg/m3
343.14 K, 1242.1 kPa | 958.1 kg/m3
343.14 K, 1256.4 kPa | 958.1 kg/m3
343.14 K, 1268.3 kPa | 958 kg/m3
343.14 K, 2111 kPa | 958.7 kg/m3
343.14 K, 2133.5 kPa | 958.7 kg/m3
343.14 K, 2152.4 kPa | 958.7 kg/m3
343.14 K, 2172.4 kPa | 958.8 kg/m3
343.14 K, 2192.8 kPa | 958.8 kg/m3
343.14 K, 2212.6 kPa | 958.8 kg/m3
343.14 K, 2232.6 kPa | 958.8 kg/m3
343.14 K, 2256.5 kPa | 958.8 kg/m3
343.14 K, 2276.6 kPa | 958.9 kg/m3
343.14 K, 2301.1 kPa | 958.8 kg/m3
343.14 K, 2322.3 kPa | 958.9 kg/m3
343.14 K, 2342.9 kPa | 958.8 kg/m3
343.14 K, 2498.5 kPa | 959.1 kg/m3
343.14 K, 2520.2 kPa | 958.9 kg/m3
343.14 K, 2541.5 kPa | 959.1 kg/m3
343.14 K, 2567.9 kPa | 959 kg/m3
343.14 K, 2590.1 kPa | 959.1 kg/m3
343.14 K, 2612.1 kPa | 959 kg/m3
343.14 K, 2638.5 kPa | 959.1 kg/m3
343.14 K, 2660.7 kPa | 959.1 kg/m3
343.14 K, 2683.4 kPa | 959.2 kg/m3
343.14 K, 6196.6 kPa | 961.7 kg/m3
343.14 K, 6236.7 kPa | 961.9 kg/m3
343.14 K, 6269.8 kPa | 961.8 kg/m3
343.14 K, 6638.6 kPa | 962.2 kg/m3
343.14 K, 6667.6 kPa | 962.1 kg/m3
343.14 K, 6695.6 kPa | 962.2 kg/m3
343.14 K, 6726.9 kPa | 962.2 kg/m3
343.14 K, 7550.4 kPa | 962.9 kg/m3
343.14 K, 7576.5 kPa | 962.8 kg/m3
343.14 K, 7602.9 kPa | 962.8 kg/m3
343.14 K, 7633.5 kPa | 962.9 kg/m3
343.14 K, 7659 kPa | 962.9 kg/m3
343.14 K, 7685.3 kPa | 963 kg/m3
343.14 K, 7716.2 kPa | 962.9 kg/m3
343.14 K, 7742 kPa | 963 kg/m3
343.14 K, 8529.9 kPa | 963.5 kg/m3
343.14 K, 8557.5 kPa | 963.5 kg/m3
343.14 K, 8590 kPa | 963.6 kg/m3
343.14 K, 8617.8 kPa | 963.7 kg/m3
343.14 K, 8680.1 kPa | 963.6 kg/m3
343.14 K, 8708.7 kPa | 963.8 kg/m3
343.14 K, 11319 kPa | 965.5 kg/m3
343.14 K, 11356 kPa | 965.5 kg/m3
343.14 K, 11392 kPa | 965.6 kg/m3
343.14 K, 11435 kPa | 965.6 kg/m3
343.14 K, 11471 kPa | 965.7 kg/m3
343.14 K, 11507 kPa | 965.8 kg/m3
343.14 K, 11550 kPa | 965.7 kg/m3
343.14 K, 11586 kPa | 965.8 kg/m3
343.14 K, 11622 kPa | 965.8 kg/m3
343.14 K, 11664 kPa | 966 kg/m3
343.14 K, 12063 kPa | 966.2 kg/m3
343.14 K, 12100 kPa | 966.1 kg/m3
343.14 K, 12131 kPa | 966.2 kg/m3
343.14 K, 12213 kPa | 966.1 kg/m3
343.14 K, 17659 kPa | 969.9 kg/m3
343.14 K, 18549 kPa | 970.7 kg/m3
343.14 K, 18578 kPa | 970.7 kg/m3
343.14 K, 18602 kPa | 970.7 kg/m3
343.14 K, 18626 kPa | 970.7 kg/m3
343.14 K, 18893 kPa | 970.8 kg/m3
343.14 K, 20126 kPa | 971.6 kg/m3 and 971.7 kg/m3
343.14 K, 20127 kPa | 971.7 kg/m3
343.14 K, 20128 kPa | 971.7 kg/m3
343.14 K, 25755 kPa | 975.4 kg/m3
343.14 K, 25795 kPa | 975.4 kg/m3
343.14 K, 25825 kPa | 975.4 kg/m3
343.14 K, 25856 kPa | 975.4 kg/m3
343.14 K, 25888 kPa | 975.5 kg/m3
343.14 K, 25925 kPa | 975.6 kg/m3
343.14 K, 25957 kPa | 975.5 kg/m3
343.14 K, 25988 kPa | 975.6 kg/m3
343.14 K, 26018 kPa | 975.6 kg/m3
343.14 K, 26052 kPa | 975.6 kg/m3
343.15 K, 203.3 kPa | 957.3 kg/m3
343.15 K, 203.6 kPa | 957.2 kg/m3 and 957.3 kg/m3 and 957.1 kg/m3
